The results in this text go back to article PMC10408170, “Synthesis, DFT and molecular docking of novel (Z)-4-bromo-N-(4-butyl-3 (quinolin-3-yl)thiazol-2(3H)-ylidene)benzamide as elastase inhibitor” (BMC Chemistry, 2023).

In the test the target is T1, Elastase from porcine pancreas (Sus scrofa, UniProt P00772).
T1 construct: gene CELA1
Nature of the test: enzyme inhibition assay, p-nitroaniline release from N-succinyl-Ala-Ala-Ala-p-nitroanilide. The test is classed as biochemical.

T1 sequence (P00772 27-266): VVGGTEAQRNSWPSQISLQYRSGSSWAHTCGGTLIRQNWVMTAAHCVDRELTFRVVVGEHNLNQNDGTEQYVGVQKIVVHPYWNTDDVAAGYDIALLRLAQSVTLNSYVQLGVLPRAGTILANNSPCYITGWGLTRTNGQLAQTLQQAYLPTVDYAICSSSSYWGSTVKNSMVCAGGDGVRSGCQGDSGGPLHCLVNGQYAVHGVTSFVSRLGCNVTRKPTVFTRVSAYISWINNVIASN

`CCCCc1cs/c(=N\C(=O)c2ccc(Br)cc2)n1-c1cnc2ccccc2c1` [compound 6, (Z)-4-bromo-N-(4-butyl-3-(quinolin-3-yl)thiazol-2(3H)-ylidene)benzamide] returned an IC50 of 1.21 µM.

The term IC50 denotes the concentration that inhibits the measured activity by half. The low end stands for inhibition by little substance, the high end for a need for much substance.
